Each block holds one compound with its values, some of them ahead of it.
Tests used:
[1] = Absorption in a Caco-2 cells model; type: in vitro ADME; details: human
Protocol: (§1) Absorption of the compounds of formula (I) was tested in a Caco-2 cells model (Gastroenterology 1989, 96, 736): […]

[2] = system: Caco-2 cells; experiment: Absorption in a Caco-2 cells model; type: in vitro ADME
Protocol: as §1

[3] = system: ^14C-cholesterol absorption; experiment: In vivo testing of cholesterol absorption inhibitors (A); parameters: species or system C57BL/6 female mice; details: procedure A, gavage, mice
Protocol: In vivo Testing of Cholesterol Absorption Inhibitors (A)
C57BL/6 female mice were maintained on regular chow diet and housed in individual cages to collect faeces. Mice were fasted for 3 hours and then gavaged with vehicle or compound. Half an hour later the mice were gavaged with radiolabelled cholesterol. Six hours after the ^14C-cholesterol gavage blood samples were taken via the tail and plasma prepared to determine how much cholesterol were absorbed. 24 hours after the gavage of ^14C-cholesterol the mice were bled and plasma were prepared for analysis. Faeces were collected for 24 hours to assess absorption efficiency.

SMILES: O=C(COc1ccc([C@@H]2[C@@H](SCC(O)c3ccc(F)cc3)C(=O)N2c2ccc(F)cc2)cc1)NCC(=O)N[C@H](Cc1ccc(O)cc1)C(=O)O (stereo partly drawn) [Example 26, N-{[4-((2R,3R)-1-(4-fluorophenyl)-3-{[2-(4-fluorophenyl)-2-hydroxyethyl]thio}-4-oxoazetidin-2-yl)phenoxy]acetyl}glycyl-D-tyrosine]
Papp [1]: 0.07 ×10⁻⁶ cm/s

SMILES: O=C(COc1ccc([C@@H]2[C@@H](SCC(O)c3ccc(F)cc3)C(=O)N2c2ccc(F)cc2)cc1)NCC(=O)N[C@H](CC1CCCC1)C(=O)O (stereo partly drawn) [Example 85, N-{[4-((2R,3R)-1-(4-fluorophenyl)-3-{[2-(4-fluorophenyl)-2-hydroxyethyl]thio}-4-oxoazetidin-2-yl)phenoxy]acetyl}glycyl-3-cyclopentyl-D-alanine]
inhibition of ^14C-cholesterol absorption ([3]; 0.2 μmol/kg): 47%

SMILES: NCCC[C@@H](NC(=O)CNC(=O)COc1ccc([C@@H]2[C@@H](SCC(O)c3ccc(F)cc3)C(=O)N2c2ccc(F)cc2)cc1)C(=O)O (stereo partly drawn) [Example 91, N-{[4-((2R,3R)-1-(4-fluorophenyl)-3-{[2-(4-fluorophenyl)-2-hydroxyethyl]thio}-4-oxoazetidin-2-yl)phenoxy]acetyl}glycyl-D-ornithine]
inhibition of ^14C-cholesterol absorption ([3]; 0.2 μmol/kg): 58%

SMILES: O=C(COc1ccc([C@@H]2[C@@H](SCC(O)c3ccc(F)cc3)C(=O)N2c2ccc(F)cc2)cc1)N[C@@H](C(=O)N[C@@H](CO)C(=O)O)c1ccccc1 (stereo partly drawn) [Example 94, 1-(4-Fluorophenyl)-3-(R)-[2-(4-fluorophenyl)-2-hydroxyethylthio]-4-(R)-{4-[N-(α-(R)-{N-[2-(hydroxy)-1-(S)-(carboxy)ethyl]carbamoyl}benzyl)carbamoylmethoxy]phenyl}azetidin-2-one]
inhibition of ^14C-cholesterol absorption ([3]; 5 μmol/kg): 89%

SMILES: O=C(COc1ccc([C@@H]2[C@@H](SCC(O)c3ccc(F)cc3)C(=O)N2c2ccc(F)cc2)cc1)NCC(=O)N[C@H](CO)C(=O)O (stereo partly drawn) [Example 96, 1-(4-Fluorophenyl)-3-(R)-[2-(4-fluorophenyl)-2-hydroxyethylthio]-4-(R)-{4-[N-{N-[2-(hydroxy)-1-(R)-(carboxy)ethyl]carbamoylmethyl}carbamoylmethoxy]phenyl}azetidin-2-one]
inhibition of ^14C-cholesterol absorption ([3]; 5 μmol/kg): 87%

The remaining lines, values ahead:

Papp [1]: 0.06 ×10⁻⁶ cm/s
SMILES: CC(C)[C@@H](NC(=O)CNC(=O)COc1ccc([C@@H]2[C@@H](SCC(O)c3ccc(F)cc3)C(=O)N2c2ccc(F)cc2)cc1)C(=O)O (stereo partly drawn) [Example 23, N-{[4-((2R,3R)-1-(4-fluorophenyl)-3-{[2-(4-fluorophenyl)-2-hydroxyethyl]thio}-4-oxoazetidin-2-yl)phenoxy]acetyl}glycyl-D-valine]

Caco value [2]: 0.2 ×10⁻⁶ cm/s
SMILES: NCCCC[C@@H](NC(=O)CNC(=O)COc1ccc([C@@H]2[C@@H](SCC(O)c3ccc(F)cc3)C(=O)N2c2ccc(F)cc2)cc1)C(=O)O (some centres unmarked) [Example 29]

Caco value [2]: 0.09 ×10⁻⁶ cm/s
SMILES: O=C(COc1ccc([C@@H]2[C@@H](SCC(O)c3ccc(F)cc3)C(=O)N2c2ccc(F)cc2)cc1)NCC(=O)N[C@H](Cc1ccccc1)C(=O)O (stereo partly drawn) [Example 97, 1-(4-Fluorophenyl)-3-(R)-[2-(4-fluorophenyl)-2-hydroxyethylthio]-4-(R)-{4-[N-{N-[2-(phenyl)-1-(R)-(carboxy)ethyl]carbamoylmethyl}carbamoylmethoxy]phenyl}azetidin-2-one]

Source: US7871998B2, “Diphenylazetidinone derivatives possessing cholesterol absorption inhibitory activity” (AstraZeneca AB, priority 2003, dated 2011)
